# Source: patent US20230295115A1, “SUBSTITUTED ISOQUINOLINYLMETHYL AMIDES, ANALOGUES THEREOF, AND METHODS USING SAME” (priority 2020, published 2023)
# Tested on: HBV rcDNA
# Assay: HepDE19 assay with bDNA quantitation of HBV rcDNA
# Format: cell-based, hepatitis B virus (HBV)
# Details: HepDE19 cells, 7 day incubation, rcDNA measured by Quantigene 2.0 bDNA assay, top concentration 25 μM; read-out: DE-19bDNA EC50
# Method in brief: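 HepDE19 cells were switched to tetracycline-free medium and exposed to compound (0.5% DMSO final) for 7 days at 37° C. rcDNA was then quantified by bDNA with an HBV-specific probe set. In parallel, viability was read as ATP content (CellTiter-Glo) after 4 days on replicate plates.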
row,Compound,EC50
1,"CC(c1c[nH]c(=O)c2c(F)c(F)ccc12)N(C)C(=O)C1Nc2ccccc2C1(C)C (centres unmarked) [Compound 105, N-(1-(7,8-Difluoro-1-oxo-1,2-dihydroisoquinolin-4-yl)ethyl)-N,3,3-trimethylindoline-2-carboxamide]",≥ 25 µM
2,"CC(c1c[nH]c(=O)c2c(F)c(F)ccc12)N(C)C(=O)C1Nc2ccccc2C1(C)C (centres unmarked) [Compound 106, N-(1-(7,8-Difluoro-1-oxo-1,2-dihydroisoquinolin-4-yl)ethyl)-N,3,3-trimethylindoline-2-carboxamide]",≥ 25 µM
3,"CC(c1c[nH]c(=O)c2c(F)c(F)ccc12)N(C)C(=O)C1Nc2ccccc2C1(C)C (centres unmarked) [Compound 107, N-(1-(7,8-Difluoro-1-oxo-1,2-dihydroisoquinolin-4-yl)ethyl)-N,3,3-trimethylindoline-2-carboxamide]",16 µM
4,"CC(c1c[nH]c(=O)c2cc(F)c(F)cc12)N(C)C(=O)C1Nc2ccccc2C1(C)C (centres unmarked) [Compound 113, N-(1-(6,7-Difluoro-1-oxo-1,2-dihydroisoquinolin-4-yl)ethyl)-N,3,3-trimethylindoline-2-carboxamide]",≥ 25 µM
5,"CC(c1c[nH]c(=O)c2cc(F)c(F)cc12)N(C)C(=O)C1Nc2ccccc2C1(C)C (centres unmarked) [Compound 114, N-(1-(6,7-Difluoro-1-oxo-1,2-dihydroisoquinolin-4-yl)ethyl)-N,3,3-trimethylindoline-2-carboxamide]",16 µM
6,"CC(c1c[nH]c(=O)c2cc(F)c(F)cc12)N(C)C(=O)C1Nc2ccccc2C1(C)C (centres unmarked) [Compound 115, N-(1-(6,7-Difluoro-1-oxo-1,2-dihydroisoquinolin-4-yl)ethyl)-N,3,3-trimethylindoline-2-carboxamide]",19 µM
7,"CC(c1cn(C)c(=O)c2cc(F)c(F)cc12)N(C)C(=O)[C@@H]1Cc2ccccc2N1 (stereo partly drawn) [Compound 183, (2S)-N-(1-(6,7-difluoro-2-methyl-1-oxo-1,2-dihydroisoquinolin-4-yl)ethyl)-N-methylindoline-2-carboxamide]",0.07 µM
8,"CC(c1cn(C)c(=O)c2cc(F)c(F)cc12)N(C)C(=O)[C@@H]1Cc2ccccc2N1 (stereo partly drawn) [Compound 184, (2S)-N-(1-(6,7-difluoro-2-methyl-1-oxo-1,2-dihydroisoquinolin-4-yl)ethyl)-N-methylindoline-2-carboxamide]",4.2 µM

# Same assay, conditions: Hepatitis B virus, HepDE19, 168 h, HepDE19 cells, 7 day incubation, rcDNA measured by Quantigene 2.0 bDNA assay, top concentration 25 μM; read-out: DE-19bDNA EC50
row,Compound,EC50
1,"CC(c1c[nH]c(=O)c2c(F)c(F)ccc12)N(C)C(=O)C1Nc2ccccc2C1(C)C (centres unmarked) [Compound 104, N-(1-(7,8-Difluoro-1-oxo-1,2-dihydroisoquinolin-4-yl)ethyl)-N,3,3-trimethylindoline-2-carboxamide]",≥ 25 µM
2,"CC(c1c[nH]c(=O)c2cc(F)c(F)cc12)N(C)C(=O)C1Nc2ccccc2C1(C)C (centres unmarked) [Compound 112, N-(1-(6,7-Difluoro-1-oxo-1,2-dihydroisoquinolin-4-yl)ethyl)-N,3,3-trimethylindoline-2-carboxamide]",21 µM
3,"C[C@H](c1c[nH]c(=O)c2ccccc12)N(C)C(=O)c1ccc(C(F)(F)F)c(F)c1 [Compound 145, (R)-3-Fluoro-N-methyl-N-(1-(1-oxo-1,2-dihydroisoquinolin-4-yl)ethyl)-4-(trifluoromethyl)benzamide]",0.11 µM
4,"C[C@H](c1c[nH]c(=O)c2ccccc12)N(C)C(=O)c1ccc(C(F)(F)F)cc1 [Compound 147, (R)-N-Methyl-N-(1-(1-oxo-1,2-dihydroisoquinolin-4-yl)ethyl)-4-(trifluoromethyl)benzamide]",0.16 µM
5,"C[C@H](c1c[nH]c(=O)c2ccccc12)N(C)C(=O)c1ccc(Cl)c(F)c1 [Compound 148, (R)-4-Chloro-3-fluoro-N-methyl-N-(1-(1-oxo-1,2-dihydroisoquinolin-4-yl)ethyl)benzamide]",0.27 µM
6,"C[C@H](c1c[nH]c(=O)c2ccccc12)N(C)C(=O)c1ccc(F)c(Cl)c1 [Compound 149, (R)-3-Chloro-4-fluoro-N-methyl-N-(1-(1-oxo-1,2-dihydroisoquinolin-4-yl)ethyl)benzamide]",0.68 µM
7,"C[C@H](c1c[nH]c(=O)c2ccccc12)N(C)C(=O)c1ccc(Br)c(F)c1 [Compound 150, (R)-4-Bromo-3-fluoro-N-methyl-N-(1-(1-oxo-1,2-dihydroisoquinolin-4-yl)ethyl)benzamide]",0.51 µM
8,"C[C@H](c1c[nH]c(=O)c2ccccc12)N(C)C(=O)Cc1ccc(Cl)cc1 [Compound 151, (R)-2-(4-Chlorophenyl)-N-methyl-N-(1-(1-oxo-1,2-dihydroisoquinolin-4-yl)ethyl)acetamide]",3.54 µM
9,"C[C@H](c1c[nH]c(=O)c2ccccc12)N(C)C(=O)c1cc2cc(F)ccn2c1 [Compound 153, (R)-7-Fluoro-N-methyl-N-(1-(1-oxo-1,2-dihydroisoquinolin-4-yl)ethyl)indolizine-2-carboxamide]",0.35 µM
10,"C[C@H](c1c[nH]c(=O)c2ccccc12)N(C)C(=O)c1cc2c(Cl)cccn2c1 [Compound 154, (R)-8-Chloro-N-methyl-N-(1-(1-oxo-1,2-dihydroisoquinolin-4-yl)ethyl)indolizine-2-carboxamide]",0.14 µM
11,"C[C@H](c1c[nH]c(=O)c2ccccc12)N(C)C(=O)c1cc2ccccc2[nH]1 [Compound 155, (R)-N-Methyl-N-(1-(1-oxo-1,2-dihydroisoquinolin-4-yl)ethyl)-1H-indole-2-carboxamide]",0.17 µM
12,"C[C@H](c1c[nH]c(=O)c2ccccc12)N(C)C(=O)c1cc2c(F)cccc2[nH]1 [Compound 156, (R)-4-Fluoro-N-methyl-N-(1-(1-oxo-1,2-dihydroisoquinolin-4-yl)ethyl)-1H-indole-2-carboxamide]",0.12 µM
13,"C[C@H](c1c[nH]c(=O)c2ccccc12)N(C)C(=O)c1cc2c(F)cc(F)cc2[nH]1 [Compound 158, (R)-4,6-Difluoro-N-methyl-N-(1-(1-oxo-1,2-dihydroisoquinolin-4-yl)ethyl)-1H-indole-2-carboxamide]",0.13 µM
14,"C[C@H](c1c[nH]c(=O)c2ccccc12)N(C)C(=O)c1cc2cc(F)c(F)cc2[nH]1 [Compound 159, (R)-5,6-Difluoro-N-methyl-N-(1-(1-oxo-1,2-dihydroisoquinolin-4-yl)ethyl)-1H-indole-2-carboxamide]",0.1 µM
15,"C[C@H](c1c[nH]c(=O)c2ccccc12)N(C)C(=O)[C@@H]1Cc2ccccc2N1 [Compound 160, (S)-N-Methyl-N-((R)-1-(1-oxo-1,2-dihydroisoquinolin-4-yl)ethyl)indoline-2-carboxamide]",0.39 µM

# Same assay, conditions: Hepatitis B virus, HepDE19, 168 h, read-out: DE-19bDNA EC50 (μM), HepDE19 cells, 7 day incubation, rcDNA measured by Quantigene 2.0 bDNA assay, top concentration 25 μM
row,Compound,EC50
1,"C[C@H](c1c[nH]c(=O)c2ccccc12)N(C)C(=O)c1ccc(Br)cc1 [Compound 146, (R)-4-Bromo-N-methyl-N-(1-(1-oxo-1,2-dihydroisoquinolin-4-yl)ethyl)benzamide]",0.15 µM
2,"C[C@H](c1c[nH]c(=O)c2ccccc12)N(C)C(=O)c1cc2ccccn2c1 [Compound 152, (R)-N-Methyl-N-(1-(1-oxo-1,2-dihydroisoquinolin-4-yl)ethyl)indolizine-2-carboxamide]",0.47 µM
3,"C[C@H](c1c[nH]c(=O)c2ccccc12)N(C)C(=O)c1cc2cc(F)ccc2[nH]1 [Compound 157, (R)-5-Fluoro-N-methyl-N-(1-(1-oxo-1,2-dihydroisoquinolin-4-yl)ethyl)-1H-indole-2-carboxamide]",0.15 µM
4,"C[C@H](c1c[nH]c(=O)c2cc(F)c(F)cc12)N(C)C(=O)c1ccc2cccn2c1 [Compound 185, (R)-N-(1-(6,7-Difluoro-1-oxo-1,2-dihydroisoquinolin-4-yl)ethyl)-N-methylindolizine-6-carboxamide]",0.04 µM
5,"C[C@H](c1c[nH]c(=O)c2cc(F)c(F)cc12)N(C)C(=O)c1cc2sc(Cl)cc2[nH]1 [Compound 186, (R)-2-Chloro-N-(1-(6,7-difluoro-1-oxo-1,2-dihydroisoquinolin-4-yl)ethyl)-N-methyl-4H-thieno[3,2-b]pyrrole-5-carboxamide]",0.03 µM
6,"C[C@H](c1c[nH]c(=O)c2cc(F)c(F)cc12)N(C)C(=O)c1ccn2cccc2c1 [Compound 187, (R)-N-(1-(6,7-Difluoro-1-oxo-1,2-dihydroisoquinolin-4-yl)ethyl)-N-methylindolizine-7-carboxamide]",0.18 µM
